For this assay, the system named is HeLa. Kind of assay: Growth inhibition of human HeLa S3 cells at 10 ug/ml after 72 hrs by crystal violet assay. It is filed as functional, cell-based.

Calls of active or inactive are those of the source. The calls are words filed in the database; no cut-off is given here.

`CCCCCCCCCC/C=C\C/C=C\CC/C=C(\C)C=O`: the outcome was Active.

Source of the values: ChEMBL document CHEMBL1155680, “A new bioactive triene aldehyde from the marine sponge Leucetta microraphis” (J Nat Prod, 2000).
